Assay results taken from KR20080020768A, “항균 효과를 갖는 목단피의 추출물로부터 분리된 신규구조의 6‘-오-바닐릴옥시파에오니플로린 화합물을유효성분으로 함유하는 조성물” (priority 2006, dated 2008).
In brackets after ≈: the same amount, converted by molar mass.

Legend:
[1] = tested on: E. coli O157 animal isolate [동물 분리주]; assay: Minimum inhibitory concentration (MIC) measurement; assay type: cell-based; conditions: Escherichia coli, 24 h, read-out: minimum inhibitory concentration (MIC)
E. coli O157 ATCC 43890 = assay: Minimum inhibitory concentration (MIC) measurement; assay type: cell-based; conditions: Escherichia coli, ATCC43890, 24 h, read-out: minimum inhibitory concentration (MIC)
[2] = tested on: MRSA 104 human isolate [사람 분리주]; assay: Minimum inhibitory concentration (MIC) measurement; assay type: cell-based, methicillin-resistant S. aureus; conditions: Staphylococcus aureus, 24 h, read-out: minimum inhibitory concentration (MIC)
MRSA ATCC 700698 = assay: Minimum inhibitory concentration (MIC) measurement; assay type: cell-based, methicillin-resistant S. aureus; conditions: Staphylococcus aureus, 24 h, read-out: minimum inhibitory concentration (MIC)
[3] = tested on: Vibrio cholerae O139 JOL376; assay: Minimum inhibitory concentration (MIC) measurement; assay type: cell-based; conditions: O139JOL376, 24 h, read-out: minimum inhibitory concentration (MIC)
[4] = tested on: Shigella dysenteriae ATCC 49557; assay: Minimum inhibitory concentration (MIC) measurement; assay type: cell-based; conditions: ATCC49557, 24 h, read-out: minimum inhibitory concentration (MIC)
[5] = tested on: MRSA 6 animal (chicken) isolate [동물(닭) 분리주]; assay: Minimum inhibitory concentration (MIC) measurement; assay type: cell-based, methicillin-resistant S. aureus; conditions: Staphylococcus aureus, 24 h, read-out: minimum inhibitory concentration (MIC)
[6] = tested on: Salmonella paratyphi A JOL381; assay: Minimum inhibitory concentration (MIC) measurement; assay type: cell-based; conditions: Salmonella enterica, 24 h, read-out: minimum inhibitory concentration (MIC)
Salmonella typhi JOL380 = assay: Minimum inhibitory concentration (MIC) measurement; assay type: cell-based; conditions: Salmonella enterica, 24 h, read-out: minimum inhibitory concentration (MIC)
[7] = tested on: Vibrio cholerae O1 JOL375; assay: Minimum inhibitory concentration (MIC) measurement; assay type: cell-based; conditions: O1JOL375, 24 h, read-out: minimum inhibitory concentration (MIC)
[8] = tested on: Salmonella typhimurium standard strain (Sal-13) [수과연표준균주 (Sal-13)]; assay: Minimum inhibitory concentration (MIC) measurement; assay type: cell-based; conditions: Salmonella enterica, 24 h, read-out: minimum inhibitory concentration (MIC)
E. coli O157 ATCC 35150 = assay: Minimum inhibitory concentration (MIC) measurement; assay type: cell-based; conditions: Escherichia coli, ATCC35150, 24 h, read-out: minimum inhibitory concentration (MIC)
[9] = tested on: Salmonella gallinarium standard strain [수과연표준균주]; assay: Minimum inhibitory concentration (MIC) measurement; assay type: cell-based; conditions: 24 h, read-out: minimum inhibitory concentration (MIC)
[10] = tested on: E. coli K88 standard strain (E-126) [수과연표준균주 (E-126)]; assay: Minimum inhibitory concentration (MIC) measurement; assay type: cell-based; conditions: Escherichia coli, 24 h, read-out: minimum inhibitory concentration (MIC)
[11] = tested on: Salmonella enteritidis standard strain (Sal-36) [수과연표준균주 (Sal-36)]; assay: Minimum inhibitory concentration (MIC) measurement; assay type: cell-based; conditions: Salmonella enterica, 24 h, read-out: minimum inhibitory concentration (MIC)
[12] = tested on: Shigella flexeneri JOL378; assay: Minimum inhibitory concentration (MIC) measurement; assay type: cell-based; conditions: JOL378, 24 h, read-out: minimum inhibitory concentration (MIC)
[13] = tested on: Shigrlla dysenteriae JOL377; assay: Minimum inhibitory concentration (MIC) measurement; assay type: cell-based; conditions: 24 h, read-out: minimum inhibitory concentration (MIC)
[14] = tested on: E. coli K99 standard strain (E-125) [수과연표준균주 (E-125)]; assay: Minimum inhibitory concentration (MIC) measurement; assay type: cell-based; conditions: Escherichia coli, 24 h, read-out: minimum inhibitory concentration (MIC)
[15] = tested on: all 18 causative bacteria of zoonotic infectious diseases [인수 공통 감염병을 유발하는 원인균 18종 모두]; assay: Minimum inhibitory concentration (MIC) measurement, all 18 strains; assay type: cell-based; conditions: 24 h; range over all 18 strains

Structure (SMILES)	MIC [1] [µg/mL]	MIC (E. coli O157 ATCC 43890) [µg/mL]	MIC [2] [µg/mL]	MIC (MRSA ATCC 700698) [µg/mL]	MIC [3] [µg/mL]	MIC [4] [µg/mL]	MIC [5] [µg/mL]	MIC [6] [µg/mL]	MIC (Salmonella typhi JOL380) [µg/mL]	MIC [7] [µg/mL]	MIC [8] [µg/mL]	MIC (E. coli O157 ATCC 35150) [µg/mL]	MIC [9] [µg/mL]	MIC [10] [µg/mL]	MIC [11] [µg/mL]	MIC [12] [µg/mL]	MIC [13] [µg/mL]	MIC [14] [µg/mL]	MIC [15] [µg/mL]
NCC1OC(OC2C(N)CC(N)C(OC3OC(CO)C(O)C(N)C3O)C2O)C(O)C(O)C1O (centres unmarked) [Kanamycin A]	> 100	10 (≈ 20.6 µM)	> 100	> 100	50 (≈ 103 µM)	> 100	50 (≈ 103 µM)	> 100	50 (≈ 103 µM)	> 100	50 (≈ 103 µM)	10 (≈ 20.6 µM)	50 (≈ 103 µM)	50 (≈ 103 µM)	50 (≈ 103 µM)	10 (≈ 20.6 µM)	> 100	–	–
CC1(C)S[C@@H]2[C@H](NC(=O)Cc3ccccc3)C(=O)N2[C@H]1C(=O)O [Penicillin G]	> 100	50 (≈ 150 µM)	> 100	100 (≈ 299 µM)	1 (≈ 2.99 µM)	> 100	> 100	> 100	> 100	> 100	10 (≈ 29.9 µM)	50 (≈ 150 µM)	10 (≈ 29.9 µM)	100 (≈ 299 µM)	50 (≈ 150 µM)	> 100	> 100	50 (≈ 150 µM)	–
COc1cc(C(=O)OCC2OC(OC34CC5C6(O)CC3(C)OC(O6)C54COC(=O)c3ccc(O)cc3)C(O)C(O)C2O)ccc1O (centres unmarked) [6′-오-바닐릴옥시파에오니플로린, 6'-O-vanillyloxypaeoniflorin]	200 (≈ 309 µM)	200 (≈ 309 µM)	200 (≈ 309 µM)	200 (≈ 309 µM)	100 (≈ 155 µM)	500 (≈ 773 µM)	300 (≈ 464 µM)	200 (≈ 309 µM)	200 (≈ 309 µM)	100 (≈ 155 µM)	200 (≈ 309 µM)	300 (≈ 464 µM)	200 (≈ 309 µM)	200 (≈ 309 µM)	200 (≈ 309 µM)	200 (≈ 309 µM)	200 (≈ 309 µM)	–	100 to 500 (≈ 155 to 773 µM)
